Patent US20030176327A1 (priority 2001, published 2003)
Counter-ions that a name gives are not always drawn.

Assays:
[1] = tested on: Bacillus anthracis; format: cell-based
[2] = tested on: Yersinia Pestis; format: cell-based
[3] = tested on: Francisella tularensis; format: cell-based
[4] = tested on: Clostridium botulinin; format: cell-based
[5] = tested on: Clostridium perfringens; format: cell-based
[6] = tested on: Brucella abortis, B milletensis and B suis; format: cell-based
[7] = tested on: Burkholderia mallei; format: cell-based
[8] = tested on: B anthracis; conditions: cited from earlier work
[9] = tested on: anthrax infection; conditions: in vivo; cited from earlier work

Cn1nnnc1SCC1=C(C(=O)O)N2C(=O)[C@@H](NC(=O)[C@H](O)c3ccccc3)[C@H]2SC1 [Cefamandole]
Suitability against Bacillus anthracis [1]: Yes | Suitability against Yersinia Pestis [2]: Yes | Suitability against Francisella tularensis [3]: Yes | Suitability against Clostridium botulinin [4]: No | Suitability against Clostridium perfringens [5]: No | Suitability against Brucella abortis, B milletensis and B suis [6]: No | Suitability against Burkholderia mallei [7]: No

CN[C@H](CC(C)C)C(=O)N[C@H]1C(=O)N[C@@H](CC(N)=O)C(=O)N[C@H]2C(=O)N[C@H]3C(=O)N[C@H](C(=O)N[C@H](C(=O)O)c4cc(O)cc(O)c4-c4cc3ccc4O)[C@H](O[C@H]3C[C@](C)(N)[C@@H](O)[C@H](C)O3)c3ccc(c(Cl)c3)Oc3cc2cc(c3O[C@@H]2O[C@H](CO)[C@@H](O)[C@H](O)[C@H]2O[C@H]2C[C@](C)(NCc3ccc(-c4ccc(Cl)cc4)cc3)[C@@H](O)[C@H](C)O2)Oc2ccc(cc2Cl)[C@H]1O [Oritavancin, (4″R)-22-O-(3-amino-2,3,6-trideoxy-3-C-methyl-A-L-arabino-hexopyranosyl)-N3″-((4-chloro(1,1′-biphenyl)-4′-yl)methyl)vancomycin]
Suitability against Bacillus anthracis [1]: Yes | Suitability against Yersinia Pestis [2]: No | Suitability against Francisella tularensis [3]: No | Suitability against Clostridium botulinin [4]: Yes* | Suitability against Clostridium perfringens [5]: Yes** | Suitability against Brucella abortis, B milletensis and B suis [6]: No | Suitability against Burkholderia mallei [7]: No

O=C(N[C@H](CO)[C@H](O)c1ccc([N+](=O)[O-])cc1)C(Cl)Cl [chloramphenicol]
Effective against B anthracis in vitro [8]: effective

CO/N=C(\C(=O)N[C@@H]1C(=O)N2C(C(=O)O)=C(COC(N)=O)CS[C@H]12)c1ccco1 [Cefuroxime]
Suitability against Bacillus anthracis [1]: Yes | Suitability against Yersinia Pestis [2]: Yes | Suitability against Francisella tularensis [3]: Yes | Suitability against Clostridium botulinin [4]: No | Suitability against Clostridium perfringens [5]: No | Suitability against Brucella abortis, B milletensis and B suis [6]: No | Suitability against Burkholderia mallei [7]: No

O=C(O)c1cn(C2CC2)c2cc(N3CCNCC3)c(F)cc2c1=O [ciprofloxacin]
Efficacy in treatment of anthrax infection, animal models [9]: excellent efficacy

N[C@@H](C(=O)N[C@@H]1C(=O)N2C(C(=O)O)=C(Cl)CS[C@H]12)c1ccccc1 [Cefaclor, 3-chloro-7-D-(2-phenylglycinamido)-3-cephem-4-carboxylic acid monohydrate]
Suitability against Bacillus anthracis [1]: Yes | Suitability against Yersinia Pestis [2]: Yes | Suitability against Francisella tularensis [3]: Yes | Suitability against Clostridium botulinin [4]: No | Suitability against Clostridium perfringens [5]: No | Suitability against Brucella abortis, B milletensis and B suis [6]: No | Suitability against Burkholderia mallei [7]: No

CC[C@H]1OC(=O)[C@H](C)[C@@H](O[C@H]2C[C@@](C)(OC)[C@@H](O)[C@H](C)O2)[C@H](C)[C@@H](O[C@@H]2O[C@H](C)C[C@H](N(C)C)[C@H]2O)[C@](C)(O)C[C@@H](C)C(=O)[C@H](C)[C@@H](O)[C@]1(C)O [erythromycin]
Effective against B anthracis in vitro [8]: effective

penicillin
Sensitivity of naturally occurring anthrax strains [8]: sensitive

NC[C@H]1O[C@H](O[C@H]2[C@H](O)[C@@H](O[C@H]3O[C@H](CO)[C@@H](O)[C@H](N)[C@H]3O)[C@H](N)C[C@@H]2N)[C@H](N)C[C@@H]1O [Tobramycin]
Suitability against Bacillus anthracis [1]: Yes | Suitability against Yersinia Pestis [2]: Yes | Suitability against Francisella tularensis [3]: Yes | Suitability against Clostridium botulinin [4]: No | Suitability against Clostridium perfringens [5]: No | Suitability against Brucella abortis, B milletensis and B suis [6]: Yes | Suitability against Burkholderia mallei [7]: Yes

CCCCCCCCCC(=O)N[C@@H](Cc1c[nH]c2ccccc12)C(=O)N[C@H](CC(N)=O)C(=O)N[C@@H](CC(=O)O)C(=O)N[C@@H]1C(=O)NCC(=O)N[C@@H](CCCN)C(=O)N[C@@H](CC(=O)O)C(=O)N[C@H](C)C(=O)N[C@@H](CC(=O)O)C(=O)NCC(=O)N[C@H](CO)C(=O)N[C@@H]([C@H](C)CC(=O)O)C(=O)N[C@@H](CC(=O)c2ccccc2N)C(=O)O[C@@H]1C [Daptomycin, N-(1-oxodecyl)-L-tryptophyl-L-asparaginyl-L-A-aspartyl-L-threonylglycyl-L-ornithyl-L-A-aspartyl-D-alanyl-L-A-aspartylglycyl-D-seryl-threo-3-methyl-L-A-glutamyl-G-(2-aminophenyl)-G-oxo-L-A-aminobutanoicacid, E1-lactone]
Suitability against Bacillus anthracis [1]: Yes | Suitability against Yersinia Pestis [2]: No | Suitability against Francisella tularensis [3]: No | Suitability against Clostridium botulinin [4]: Yes* | Suitability against Clostridium perfringens [5]: Yes** | Suitability against Brucella abortis, B milletensis and B suis [6]: No | Suitability against Burkholderia mallei [7]: No

CC(=O)OCC1=C(C(=O)O)N2C(=O)[C@@H](NC(=O)Cc3cccs3)[C@H]2SC1 [Cephalothin]
Suitability against Bacillus anthracis [1]: Yes | Suitability against Yersinia Pestis [2]: Yes | Suitability against Francisella tularensis [3]: Yes | Suitability against Clostridium botulinin [4]: No | Suitability against Clostridium perfringens [5]: No | Suitability against Brucella abortis, B milletensis and B suis [6]: No | Suitability against Burkholderia mallei [7]: No

CC1=C(C(=O)O)N2C(=O)[C@@H](NC(=O)[C@H](N)c3ccccc3)[C@H]2SC1 [Cephalexin Monohydrate]
Suitability against Bacillus anthracis [1]: Yes | Suitability against Yersinia Pestis [2]: Yes | Suitability against Francisella tularensis [3]: Yes | Suitability against Clostridium botulinin [4]: No | Suitability against Clostridium perfringens [5]: No | Suitability against Brucella abortis, B milletensis and B suis [6]: No | Suitability against Burkholderia mallei [7]: No

N[C@@H](C(=O)N[C@@H]1C(=O)N2C(C(=O)O)=C(Cl)CC[C@H]12)c1ccccc1.O [Loracarbef, (6R,7S)-7-[(R)-2-amino-2-phenylacetamido]-3-chloro-8-oxo-1-azabicyclo[4.2.0]oct-2-ene-2-carboxylic acid, monohydrate]
Suitability against Bacillus anthracis [1]: Yes | Suitability against Yersinia Pestis [2]: Yes | Suitability against Francisella tularensis [3]: Yes | Suitability against Clostridium botulinin [4]: No | Suitability against Clostridium perfringens [5]: No | Suitability against Brucella abortis, B milletensis and B suis [6]: No | Suitability against Burkholderia mallei [7]: No

CN[C@H](CC(C)C)C(=O)N[C@H]1C(=O)N[C@@H](CC(N)=O)C(=O)N[C@H]2C(=O)N[C@H]3C(=O)N[C@H](C(=O)N[C@H](C(=O)O)c4cc(O)cc(O)c4-c4cc3ccc4O)[C@H](O)c3ccc(c(Cl)c3)Oc3cc2cc(c3O[C@@H]2O[C@H](CO)[C@@H](O)[C@H](O)[C@H]2O[C@H]2C[C@](C)(N)[C@H](O)[C@H](C)O2)Oc2ccc(cc2Cl)[C@H]1O [Vancomycin HCl]
Suitability against Bacillus anthracis [1]: Yes | Suitability against Yersinia Pestis [2]: No | Suitability against Francisella tularensis [3]: No | Suitability against Clostridium botulinin [4]: Yes* | Suitability against Clostridium perfringens [5]: Yes** | Suitability against Brucella abortis, B milletensis and B suis [6]: No | Suitability against Burkholderia mallei [7]: No | Effective against B anthracis in vitro [8]: effective

Cc1nnc(SCC2=C(C(=O)O)N3C(=O)[C@@H](NC(=O)Cn4cnnn4)[C@H]3SC2)s1 [Cefazolin]
Suitability against Bacillus anthracis [1]: Yes | Suitability against Yersinia Pestis [2]: Yes | Suitability against Francisella tularensis [3]: Yes | Suitability against Brucella abortis, B milletensis and B suis [6]: No | Suitability against Burkholderia mallei [7]: No | Effective against B anthracis in vitro [8]: effective

CCn1nc(C(=O)O)c(=O)c2cc3c(cc21)OCO3 [Cinoxacin]
Suitability against Bacillus anthracis [1]: Yes | Suitability against Yersinia Pestis [2]: Yes | Suitability against Francisella tularensis [3]: Yes | Suitability against Clostridium botulinin [4]: No | Suitability against Clostridium perfringens [5]: No | Suitability against Brucella abortis, B milletensis and B suis [6]: No | Suitability against Burkholderia mallei [7]: No
